This is an account of results in patent US8022206B2 (OSI Pharmaceuticals, LLC, priority 2008, dated 2011).

A word on the pIC50: it is the IC50 on a negative log10 scale, so that one unit is a factor of ten.

One experiment concerns the target MET (human) (Homo sapiens, UniProt P08581). In words: MET (human) AlphaScreen kinase assay, Km of ATP. The class given is biochemical. As to conditions: AlphaScreen, Km of ATP; read-out: Met biochemical IC50. The essentials: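 Human MET at lot-optimised concentration in 50 mM Tris pH 7.4 buffer with 1 mM DTT, compound at 1% DMSO final; enzyme starts the reaction, 60 min at RT.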

The next experiment deals with RON (human) (Homo sapiens, UniProt Q04912). In words: RON (human) AlphaScreen kinase assay, Km of ATP. The class given is biochemical. As to conditions: AlphaScreen, Km of ATP; read-out: RON biochemical IC50. The procedure, abridged:
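Detection used PT66 AlphaScreen beads added in Tris pH 7.5/NaCl/EDTA/BSA buffer, read after 1 h incubation. Vehicle-only DMSO wells served as controls.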

pIC50: −log10 of the molar value.

Chain of MET (human) (P08581 25-1390): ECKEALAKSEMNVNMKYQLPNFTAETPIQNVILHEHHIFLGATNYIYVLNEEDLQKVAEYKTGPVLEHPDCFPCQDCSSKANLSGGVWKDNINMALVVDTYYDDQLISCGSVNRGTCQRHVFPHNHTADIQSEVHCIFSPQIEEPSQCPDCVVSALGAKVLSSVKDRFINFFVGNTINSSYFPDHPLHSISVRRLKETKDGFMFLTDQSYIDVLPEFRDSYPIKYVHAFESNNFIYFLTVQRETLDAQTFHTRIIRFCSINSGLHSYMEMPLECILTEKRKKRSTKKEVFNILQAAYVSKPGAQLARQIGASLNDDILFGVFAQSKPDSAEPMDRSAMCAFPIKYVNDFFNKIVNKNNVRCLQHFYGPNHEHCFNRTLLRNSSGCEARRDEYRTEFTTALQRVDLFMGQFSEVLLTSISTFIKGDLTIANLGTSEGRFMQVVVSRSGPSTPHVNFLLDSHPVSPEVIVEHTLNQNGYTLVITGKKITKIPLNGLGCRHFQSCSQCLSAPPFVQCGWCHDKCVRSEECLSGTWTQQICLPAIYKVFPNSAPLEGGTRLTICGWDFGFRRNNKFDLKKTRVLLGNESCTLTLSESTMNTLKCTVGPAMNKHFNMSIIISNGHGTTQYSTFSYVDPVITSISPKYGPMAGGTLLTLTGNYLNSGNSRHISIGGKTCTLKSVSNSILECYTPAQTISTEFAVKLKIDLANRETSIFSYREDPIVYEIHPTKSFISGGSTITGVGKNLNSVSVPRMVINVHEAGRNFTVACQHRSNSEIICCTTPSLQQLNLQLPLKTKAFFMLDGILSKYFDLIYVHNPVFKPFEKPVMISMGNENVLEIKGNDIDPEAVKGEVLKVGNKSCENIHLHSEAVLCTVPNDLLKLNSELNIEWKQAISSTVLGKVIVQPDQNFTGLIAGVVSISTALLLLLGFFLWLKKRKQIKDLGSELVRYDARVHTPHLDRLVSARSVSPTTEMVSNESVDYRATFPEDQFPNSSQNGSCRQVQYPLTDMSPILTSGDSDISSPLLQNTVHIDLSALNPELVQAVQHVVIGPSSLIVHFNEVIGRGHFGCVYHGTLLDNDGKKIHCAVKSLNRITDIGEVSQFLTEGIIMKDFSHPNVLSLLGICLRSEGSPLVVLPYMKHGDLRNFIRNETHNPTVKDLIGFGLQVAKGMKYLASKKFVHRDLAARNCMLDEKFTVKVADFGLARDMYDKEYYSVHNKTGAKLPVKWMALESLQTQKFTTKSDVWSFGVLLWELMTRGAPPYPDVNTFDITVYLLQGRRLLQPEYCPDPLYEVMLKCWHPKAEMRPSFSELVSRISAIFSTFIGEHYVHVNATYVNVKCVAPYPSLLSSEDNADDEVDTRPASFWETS
Chain of RON (human) (Q04912 25-1400): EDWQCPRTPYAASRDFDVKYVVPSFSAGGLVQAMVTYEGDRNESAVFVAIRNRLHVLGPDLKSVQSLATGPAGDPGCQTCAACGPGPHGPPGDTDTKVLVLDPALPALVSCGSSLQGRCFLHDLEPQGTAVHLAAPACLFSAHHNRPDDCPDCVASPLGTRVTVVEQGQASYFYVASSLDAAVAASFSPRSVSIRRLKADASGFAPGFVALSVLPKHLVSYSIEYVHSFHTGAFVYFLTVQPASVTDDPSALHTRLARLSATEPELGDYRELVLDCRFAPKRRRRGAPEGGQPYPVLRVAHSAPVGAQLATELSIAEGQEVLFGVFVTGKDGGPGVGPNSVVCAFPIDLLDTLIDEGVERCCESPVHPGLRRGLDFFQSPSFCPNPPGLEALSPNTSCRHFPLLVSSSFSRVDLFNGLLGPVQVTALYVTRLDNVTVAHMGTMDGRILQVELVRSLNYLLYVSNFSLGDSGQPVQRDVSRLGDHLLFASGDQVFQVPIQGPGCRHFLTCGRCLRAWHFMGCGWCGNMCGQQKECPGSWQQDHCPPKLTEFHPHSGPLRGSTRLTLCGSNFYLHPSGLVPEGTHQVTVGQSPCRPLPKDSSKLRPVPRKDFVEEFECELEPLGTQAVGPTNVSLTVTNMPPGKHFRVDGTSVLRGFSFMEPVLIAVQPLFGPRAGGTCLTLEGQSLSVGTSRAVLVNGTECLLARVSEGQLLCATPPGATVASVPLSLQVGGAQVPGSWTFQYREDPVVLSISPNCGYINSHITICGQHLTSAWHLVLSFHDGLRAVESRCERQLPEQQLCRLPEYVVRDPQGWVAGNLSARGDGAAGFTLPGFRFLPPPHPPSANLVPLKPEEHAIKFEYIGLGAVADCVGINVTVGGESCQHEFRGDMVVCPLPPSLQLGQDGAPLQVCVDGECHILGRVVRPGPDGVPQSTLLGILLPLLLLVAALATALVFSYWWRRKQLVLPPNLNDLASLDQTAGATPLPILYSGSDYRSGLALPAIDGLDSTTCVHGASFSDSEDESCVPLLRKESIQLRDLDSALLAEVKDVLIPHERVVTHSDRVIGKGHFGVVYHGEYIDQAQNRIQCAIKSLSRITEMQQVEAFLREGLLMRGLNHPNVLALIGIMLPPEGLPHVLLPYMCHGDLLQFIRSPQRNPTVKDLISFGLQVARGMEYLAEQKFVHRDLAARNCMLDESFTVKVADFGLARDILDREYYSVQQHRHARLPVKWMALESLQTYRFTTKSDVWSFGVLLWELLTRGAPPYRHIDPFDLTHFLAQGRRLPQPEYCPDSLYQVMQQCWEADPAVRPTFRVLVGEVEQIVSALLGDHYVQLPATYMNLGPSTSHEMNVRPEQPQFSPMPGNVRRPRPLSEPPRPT

Turning to `C[C@@H](Oc1c(N)ncc2c(C3=CCN(C(=O)[C@H](O)C(F)(F)F)CC3)coc12)c1c(Cl)ccc(F)c1Cl` [Example 269, (2S)-1-[4-{6-Amino-7-[(1R)-1-(2,6-dichloro-3-fluorophenyl)ethoxy]furo[3,2-c]pyridin-3-yl}-3,6-dihydropyridin-1(2H)-yl]-3,3,3-trifluoro-2-hydroxypropan-1-one], the pIC50 on MET (human) and on RON (human) was 5.30 to 6.30 in each case.
Turning to `C[C@@H](Oc1c(N)ncc2c(C3=CCN(CC(=O)N4CCC(O)C4)CC3)coc12)c1c(Cl)ccc(F)c1Cl` (stereo partly drawn) [Example 203, 2-(4-{6-Amino-7-[(R)-1-(2,6-dichloro-3-fluorophenyl)ethoxy]-furo[3,2-e]pyridin-3-yl}-3,6-dihydro-2H-pyridin-1-yl)-1-(3-hydroxypyrrolidin-1-yl)ethanone], the pIC50 on MET (human) is > 6.30; on RON (human) it was 5.30 to 6.30.
In the case of `C[C@@H](Oc1c(N)ncc2c(-c3ccc(NS(C)(=O)=O)cc3)coc12)c1c(Cl)ccc(F)c1Cl` [Example 76, N-(4-{6-Amino-7-[(R)-1-(2,6-dichloro-3-fluorophenyl)ethoxy]-furo[3,2-c]pyridin-3-yl}phenyl)methanesulfonamide], the pIC50 on MET (human) was > 6.30; on RON (human), 5.30 to 6.30.
On to `C[C@@H](Oc1c(N)ncc2c(C3=CCN(CCN)CC3)coc12)c1c(Cl)ccc(F)c1Cl` [Example 43, 3-[1-(2-Aminoethyl)-1,2,3,6-tetrahydropyridin-4-yl]-7-[(R)-1-(2,6-dichloro-3-fluorophenyl)ethoxy]-furo[3,2-c]pyridin-6-ylamine], for which the pIC50 on MET (human) and at RON (human) was > 6.30 each time.
On to `C[C@@H](Oc1c(N)ncc2c(-c3ccnc(N4CCN(C)CC4)c3)coc12)c1c(Cl)ccc(F)c1Cl` [Example 89, 7-[(R)-1-(2,6-Dichloro-3-fluorophenyl)ethoxy]-3-[2-(4-methylpiperazin-1-yl)pyridin-4-yl]-furo[3,2-c]pyridin-6-ylamine], for which the pIC50 on MET (human) and on RON (human) was > 6.30 throughout.
As for `CC(Oc1c(N)ncc2c(-c3cnn(C4CCNCC4)c3)coc12)c1ccc(Cl)cc1` (stereo not shown) [Example 377, 7-[1-(4-Chlorophenyl)ethoxy]-3-(1-piperidin-4-yl-1H-pyrazol-4-yl)furo[3,2-c]pyridin-6-ylamine], the pIC50 at MET (human) and at RON (human) was 5.30 to 6.30 throughout.
Consider `C[C@@H](Oc1c(N)ncc2c(-c3cnn(C4CCNCC4)c3)c(C#CC(C)(C)O)oc12)c1c(Cl)ccc(F)c1Cl` [Example 171, 4-[6-Amino-7-[(R)-1-(2,6-dichloro-3-fluorophenyl)ethoxy]-3-(1-piperidin-4-yl-1H-pyrazol-4-yl)-furo[3,2-c]pyridin-2-yl]-2-methylbut-3-yn-2-ol], for which the pIC50 at MET (human) and on RON (human) was > 6.30 each time.
Turning to `CC(Oc1c(N)ncc2c(-c3cnn(C4CCNCC4)c3)coc12)c1cc(F)cc(-c2ccn[nH]2)c1` (stereo not shown) [Example 450, 7-{1-[3-Fluoro-5-(2H-pyrazol-3-yl)phenyl]ethoxy}-3-(1-piperidin-4-yl-1H-pyrazol-4-yl)furo[3,2-c]pyridin-6-ylamine], the pIC50 is > 6.30 at MET (human) and 5.30 to 6.30 on RON (human).
As to `C[C@@H](Oc1c(N)ncc2c(-c3ccc(C(=O)N4CCCC4)cc3)coc12)c1c(Cl)ccc(F)c1Cl` [Example 84, (4-{6-Amino-7-[(R)-1-(2,6-dichloro-3-fluorophenyl)ethoxy]-furo[3,2-c]pyridin-3-yl}phenyl)pyrrolidin-1-ylmethanone], the pIC50 at MET (human) was > 6.30; on RON (human) it was 5.30 to 6.30.
Regarding `C[C@@H](Oc1c(N)ncc2c(-c3csc(C(=O)N(C)C)c3)coc12)c1c(Cl)ccc(F)c1Cl` [Example 317, 4-{6-Amino-7-[(R)-1-(2,6-dichloro-3-fluorophenyl)ethoxy]furo[3,2-c]pyridin-3-yl}thiophene-2-carboxylic acid Dimethylamide], the pIC50 on MET (human) and on RON (human) was 5.30 to 6.30 in each case.
`C[C@@H](Oc1c(N)ncc2c(-c3cnc(N4CCOCC4)nc3)coc12)c1c(Cl)ccc(F)c1Cl` [Example 283, 7-[(R)-1-(2,6-Dichloro-3-fluorophenyl)ethoxy]-3-(2-morpholin-4-ylpyrimidin-5-yl)furo[3,2-c]pyridin-6-ylamine]: the pIC50 at MET (human) and on RON (human) was 5.30 to 6.30 each time.
With `Cc1oc2c(O[C@H](C)c3c(Cl)ccc(F)c3Cl)c(N)ncc2c1-c1cnn(C2CCNCC2)c1` [Example 168, 7-[(R)-1-(2,6-Dichloro-3-fluorophenyl)ethoxy]-2-methyl-3-(1-piperidin-4-yl-1H-pyrazol-4-yl)-furo[3,2-c]pyridin-6-ylamine], the pIC50 on MET (human) is > 6.30; at RON (human), 5.30 to 6.30.
Consider `C[C@@H](Oc1c(N)ncc2c(-c3csc(C(=O)N4CCN(C)CC4)c3)coc12)c1c(Cl)ccc(F)c1Cl` [Example 316, (4-{6-Amino-7-[(R)-1-(2,6-dichloro-3-fluorophenyl)ethoxy]furo[3,2-c]pyridin-3-yl}thiophen-2-yl)-(4-methylpiperazin-1-yl)methanone], for which the pIC50 on MET (human) and on RON (human) was > 6.30 throughout.
In the case of `C[C@@H](Oc1c(N)ncc2c(C3=CCN(C)CC3)coc12)c1c(Cl)ccc(F)c1Cl` [Example 37, 7-[(R)-1-(2,6-Dichloro-3-fluorophenyl)-ethoxy]-3-(1-methyl-1,2,3,6-tetrahydropyridin-4-yl)-furo[3,2-c]pyridin-6-ylamine], the pIC50 on MET (human) and at RON (human) was > 6.30 throughout.
For the compound `Cc1cscc1-c1coc2c(O[C@H](C)c3c(Cl)ccc(F)c3Cl)c(N)ncc12` [Example 111, 7-[(R)-1-(2,6-Dichloro-3-fluorophenyl)ethoxy]-3-(4-methylthiophen-3-yl)furo[3,2-c]pyridin-6-ylamine], the pIC50 on MET (human) and on RON (human) was 5.30 to 6.30 each time.
Regarding `C[C@@H](Oc1c(N)ncc2c(-c3cccc(CN4CCCCC4)c3)coc12)c1c(Cl)ccc(F)c1Cl` [Example 91, 7-[(R)-1-(2,6-Dichloro-3-fluorophenyl)ethoxy]-3-(3-piperidin-1-ylmethylphenyl)furo[3,2-c]pyridin-6-ylamine], the pIC50 on MET (human) and at RON (human) was > 6.30 in each case.
Take `C[C@@H](Oc1c(N)ncc2c(C3=CCN(C(=O)[C@H](N)Cc4ccccc4)CC3)coc12)c1c(Cl)ccc(F)c1Cl` [Example 257, (2R)-2-Amino-1-[4-{6-amino-7-[(1R)-1-(2,6-dichloro-3-fluoro-phenyl)ethoxy]furo[3,2-c]pyridin-3-yl}-3,6-dihydropyridin-1(2H)-yl]-3-phenylpropan-1-one]: the pIC50 is > 6.30 at MET (human) and 5.30 to 6.30 on RON (human).
On the same counts, the results for `C=C(C)CC(Oc1c(N)ncc2c(-c3cnn(C4CCNCC4)c3)coc12)c1c(Cl)cccc1Cl` (stereo not shown) [Example 363, 7-[1-(2,6-Dichlorophenyl)-3-methylbut-3-enyloxy]-3-(1-piperidin-4-yl-1H-pyrazol-4-yl)furo[3,2-c]pyridin-6-ylamine] are 5.30 to 6.30 and 5.30 to 6.30.
In the case of `C[C@@H](Oc1c(N)ncc2c(C3=CCN(C(=O)[C@@H](N)Cc4ccccc4)CC3)coc12)c1c(Cl)ccc(F)c1Cl` [Example 256, (2S)-2-Amino-1-[4-{6-amino-7-[(1R)-1-(2,6-dichloro-3-fluoro-phenyl)ethoxy]furo[3,2-c]pyridin-3-yl}-3,6-dihydropyridin-1(2H)-yl]-3-phenylpropan-1-one], the figures for the pIC50 at MET (human) and on RON (human) were > 6.30 and 5.30 to 6.30, respectively.
As for `C[C@@H](Oc1c(N)ncc2c(CO)coc12)c1c(Cl)ccc(F)c1Cl` [Example 194, {6-Amino-7-[(R)-1-(2,6-dichloro-3-fluorophenyl)ethoxy]furo[3,2-c]pyridin-3-yl}-methanol], the pIC50 at MET (human) and on RON (human) was 5.30 to 6.30 each time.
As to `C[C@@H](Oc1c(N)ncc2c(C3=CCN(C(=O)[C@@H](N)CO)CC3)coc12)c1c(Cl)ccc(F)c1Cl` [Example 254, (2S)-2-Amino-1-[4-{6-amino-7-[(1R)-1-(2,6-dichloro-3-fluoro-phenyl)ethoxy]furo[3,2-c]pyridin-3-yl}-3,6-dihydropyridin-1(2H)-yl]-3-hydroxypropan-1-one], the pIC50 at MET (human) and at RON (human) was > 6.30 throughout.
On to `CC(Cc1ccc(Cl)c(Cl)c1)Oc1c(N)ncc2c(-c3cnn(C4CCNCC4)c3)coc12` (stereo not shown) [Example 428, 7-[2-(3,4-Dichlorophenyl)-1-methylethoxy]-3-(1-piperidin-4-yl-1H-pyrazol-4-yl)furo[3,2-c]pyridin-6-ylamine], for which the pIC50 at MET (human) was 5.30 to 6.30; at RON (human), > 6.30.
As to `C[C@@H](Oc1c(N)ncc2c(C3=CCN(C(=O)N4CCN(CC(F)(F)F)CC4)CC3)coc12)c1c(Cl)ccc(F)c1Cl` [Example 28, (4-{6-Amino-7-[(R)-1-(2,6-dichloro-3-fluorophenyl)-ethoxy]-furo[3,2-c]pyridin-3-yl}-3,6-dihydro-2H-pyridin-1-yl)-[4-(2,2,2-trifluoroethyl)-piperazin-1-yl]-methanone], the pIC50 on MET (human) and at RON (human) was 5.30 to 6.30 each time.
Turning to `CC(Oc1c(N)ncc2c(-c3cnn(C4CCNCC4)c3)coc12)c1ccc(F)cc1` (stereo not shown) [Example 376, 7-[1-(4-Fluorophenyl)ethoxy]-3-(1-piperidin-4-yl-1H-pyrazol-4-yl)furo[3,2-c]pyridin-6-ylamine], the pIC50 at MET (human) and at RON (human) was 5.30 to 6.30 in each case.
Regarding `C[C@@H](Oc1c(N)ncc2c(C(=O)NCC3CCN(C)CC3)coc12)c1c(Cl)ccc(F)c1Cl` [Example 185, 6-Amino-7-[(R)-1-(2,6-dichloro-3-fluorophenyl)ethoxy]furo[3,2-c]pyridine-3-carboxylic acid (1-methylpiperidin-4-ylmethyl)amide], the pIC50 was > 6.30 on MET (human) and 5.30 to 6.30 on RON (human).
As for `CC(Oc1c(N)ncc2c(-c3cnn(C4CCNCC4)c3)coc12)c1c(F)cccc1Cl` (stereo not shown) [Example 401, 7-[1-(2-Chloro-6-fluorophenyl)ethoxy]-3-(1-piperidin-4-yl-1H-pyrazol-4-yl)furo[3,2-c]pyridin-6-ylamine], the pIC50 at MET (human) is > 6.30; on RON (human), 5.30 to 6.30.
